For three compounds, IC50 results are on record in ChEMBL document CHEMBL1130718, “(2Z,4E)-5-(5,6-dichloro-2-indolyl)-2-methoxy-N-(1,2,2,6,6- pentamethylpiperidin-4-yl)-2,4-pentadienamide, a novel, potent and selective inhibitor of the osteoclast V-ATPase” (Bioorg Med Chem Lett, 1998).

A short description of test [1]: Compound selectivity was assessed using vacuolar type proton ATPase from human kidney cortex(hK).
The nature of test [2]: Compound selectivity was assessed using vacuolar type proton ATPase from human kidney cortex (hK).
A short description of test [3]: Compound selectivity was assessed using vacuolar type proton ATPase from chicken adrenal glands (cAG). It is filed as tissue-based, Adrenal gland.
For test [4], the species on record is Homo sapiens. The test can be described thus: In vitro human osteoclast activity for bone resorption was assessed by ELISA assay. It is filed as functional. On the technique in general: In an ELISA, binding on a coated surface is turned into a signal by an enzyme label.
The species named for test [5] is Homo sapiens. The experiment in a line: Ability to inhibit bone resorption in human osteoclast obtained from giant cell tumors of bone. It counts as functional.

`CO/C(=C/C=C/c1cc2cc(Cl)c(Cl)cc2[nH]1)C(=O)NC1CC(C)(C)N(C)C(C)(C)C1` showed an IC50 in test [1] of 6.33 µM.

For the compound `CO/C(=C\C=C/c1cc2cc(Cl)c(Cl)cc2[nH]1)C(=O)NC1CC(C)(C)N(C)C(C)(C)C1`, half-maximal inhibition in test [2] (IC50) required 2.5 µM.

Consider `CO/C(=C\C=C\c1cc2cc(Cl)c(Cl)cc2[nH]1)C(=O)NC1CC(C)(C)N(C)C(C)(C)C1`, for which the IC50 in test [2] was determined as 0.158 µM; in test [3], 0.125 µM; in the test filed under Homo sapiens [4], 0.0034 µM; in the test listed under Homo sapiens [5], 0.0135 µM.

Usually IC50 stands for the point on the concentration scale where inhibition reaches its midpoint. Low values mean greater potency in that assay, high ones weaker potency in that assay.
